This is an account of results in paper PMC13114161 (Antibiotics, 2026).

Where two headings read alike, the source gives them in different places. Peptide text beside a SMILES is read from it. * marks the point of attachment. βNA = c1ccc2cc(N*)ccc2c1

Type in all cases: cell-based, Pseudomonas aeruginosa
One experiment deals with P. aeruginosa. The experiment is described as follows: MIC potentiation of antimicrobial agents by EPIs.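 For Fold difference of antibiotic MIC + TXA01182: TXA01182 tested at 6.25 µg/mL.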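 For Fold difference of antibiotic MIC + TXA09155: TXA09155 tested at 6.25 µg/mL.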 For Fold difference of antibiotic MIC + TXA11114: TXA11114 at 6.25 µg/mL.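 For MIC of antibiotic + TXA01182: TXA01182 tested at 6.25 µg/mL.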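 For MIC of antibiotic + TXA09155: TXA09155 tested at 6.25 µg/mL.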 For MIC of antibiotic + TXA11114: TXA11114 at 6.25 µg/mL. Conditions: for Fold difference of antibiotic MIC + TXA01182 / MIC of antibiotic + TXA01182: TXA01182 at […]; for Fold difference of antibiotic MIC + TXA09155 / MIC of antibiotic + TXA09155: TXA09155 at […]; for Fold difference of antibiotic MIC + TXA11114 / MIC of antibiotic + TXA11114: TXA11114 at […]. The protocol: In contrast, the activities of gentamicin and imipenem were unchanged in the presence of TXA11114 under the conditions tested. Although gentamicin can be transported by the MexXY efflux system, the absence of potentiation in this assay is not sufficient to draw conclusions regarding MexXY inhibition or overall efflux specificity.
(§1) MIC assays for potentiation of antimicrobial activity against P. aeruginosa were performed as described previously.

Experiment [1] deals with multidrug-resistant P. aeruginosa clinical isolates from the CDC-FDA. The experiment is described as follows: Levofloxacin MIC potentiation, CDC-FDA isolates. Conditions: for Levofloxacin MIC fold difference, +EPI / Levofloxacin MIC, +EPI: EPI […] (TXA11114, TXA09155) or 50 μg/mL (MC-04,124, PAβN); for Share of CDC isolates with levofloxacin MIC reduced ≥8-fold (potentiated): TXA11114 […], PAβN and MC-04,124 50 µg/mL. As for the experimental part:
In a comparative study, the levofloxacin-potentiating activity of TXA11114 was evaluated alongside the well-characterized EPIs PAβN and MC-04,124 using P. aeruginosa clinical isolates obtained from the CDC and FDA Antimicrobial Resistance Isolate Bank and the Walter Reed Army Institute of Research (WRAIR). […] While PAβN has been widely studied in laboratory strains, its activity against the CDC/FDA P. aeruginosa panel has been reported only sparingly, limiting direct cross-study comparisons.
as §1

The next experiment deals with P. aeruginosa ATCC 27853. Nature of the experiment: MIC and levofloxacin potentiation (broth microdilution). Conditions: for LVX MIC (+EPI): levofloxacin MIC with EPI at […]. As for the experimental part: Once synthesized, the three fluorinated EPI analogs (TXA11114, TXA11164 and TXA12027) were first assayed for their antibacterial activities against P. aeruginosa ATCC 27853. They had MICs of 100, >200 and 100 µg/mL, respectively (Table 1). […] Particularly, the inactivity of TXA11164 was surprising as the pKa values of both the amines are similar to that in TXA11114.
as §1
A general note: Dilution methods test growth across graded concentrations, often in twofold steps.

The subject of experiment [2] is P. aeruginosa ATCC 27853 ompH mutants EPIR32, EPIR36, EPIR38. The experiment is described as follows: microbe, parasite or virus in culture. The protocol: as §1
[3] abbreviates: Pseudomonas aeruginosa, ATCC27853, EPI alone, ATCC 27853, read-out: EPI MIC.
Where [4] appears, read: ATCC 27853 parent strain (Table S1).

Consider `CO/N=C(\C(=O)N[C@@H]1C(=O)N2C(C(=O)[O-])=C(C[n+]3cccc4c3CCC4)CS[C@H]12)c1csc(N)n1` [Cefpirome], for which, in the experiment with P. aeruginosa, the “Fold difference of antibiotic MIC + TXA01182” value is given as 2 fold, the “Fold difference of antibiotic MIC + TXA09155” value was 8 fold, the “MIC of antibiotic + TXA09155” value amounted to 1 µg/mL and the “Fold difference of antibiotic MIC + TXA11114” value worked out at 4 fold. In addition, the “MIC of antibiotic + TXA11114” value in the experiment on P. aeruginosa came out at 2 µg/mL.

Turning to `NC(N)=NCCC[C@H](NC(=O)[C@@H](N)Cc1ccccc1)C(=O)Nc1ccc2ccccc2c1` [PAβN, phenylalanine-arginine β-naphthylamide] (H-Phe-Arg-βNA), the “Levofloxacin MIC fold difference, +EPI” value in experiment [1] (AR-0229) is reported as 1 fold; in experiment [1] (AR-0232) it was 16 fold; in experiment [1] (AR-0233), 1 fold; in experiment [1] (AR-0234), 16 fold; in experiment [1] (AR-0239), 8, (8) fold; in experiment [1] (AR-0244), 1 fold. Further, the “Levofloxacin MIC fold difference, +EPI” value in experiment [1] (AR-0246) is reported as 1 fold; in experiment [1] (AR-0248), 1 fold; in experiment [1] (AR-0249), 8, (8) fold; in experiment [1] (AR-0252), 32 fold; in experiment [1] (AR-0253), 64 fold; in experiment [1] (AR-0264) it was 1 fold. Besides, the “Levofloxacin MIC, +EPI” value in experiment [1] (AR-0229) was 64 µg/mL; in experiment [1] (AR-0232), 0.5 µg/mL; in experiment [1] (AR-0233) it was 4 µg/mL; in experiment [1] (AR-0234), 0.5 µg/mL; in experiment [1] (AR-0239), 8, (8) μg/mL; in experiment [1] (AR-0242), 0.5 µg/mL. For the same compound, the “Levofloxacin MIC, +EPI” value in experiment [1] (AR-0246) was 64 µg/mL; in experiment [1] (AR-0248), 16 µg/mL; in experiment [1] (AR-0249), 8, (8) μg/mL; in experiment [1] (AR-0252) it was 1 µg/mL; in experiment [1] (AR-0253), 0.031 µg/mL; in experiment [1] (AR-0264), 64 µg/mL. Besides, in experiment [1], the “Share of CDC isolates with levofloxacin MIC reduced ≥8-fold (potentiated)” value is ~ 54%.

With `CNC(C)C1CCC(N)C(OC2C(N)CC(N)C(OC3OCC(C)(O)C(NC)C3O)C2O)O1` (stereo not drawn) [Gentamicin], in the experiment with P. aeruginosa, the “Fold difference of antibiotic MIC + TXA01182” value worked out at 1 fold, the “MIC of antibiotic + TXA01182” value was 2 µg/mL, the “Fold difference of antibiotic MIC + TXA09155” value amounted to 1 fold and the “MIC of antibiotic + TXA09155” value was 2 µg/mL. For the same compound, in the experiment with P. aeruginosa, the “Fold difference of antibiotic MIC + TXA11114” value came out at 1 fold and the “MIC of antibiotic + TXA11114” value came to 2 µg/mL. Further, in the experiment with P. aeruginosa (listed as gentamicin), the “Fold difference of antibiotic MIC + TXA11114” value is on record as “unchanged”.

On to `NCCC(F)[C@@H](N)CNC(=O)c1cc2ccc(-c3ccc(F)cc3)cc2[nH]1` (stereo partly drawn) [TXA11164, N-((2S)-2,5-diamino-3-fluoropentyl)-6-(4-fluorophenyl)-1H-indole-2-carboxamide], for which the “EPI MIC” value with P. aeruginosa ATCC 27853 (EPI alone, ATCC 27853) is above 200 µg/mL. Moreover, the “Fold MIC reduction [LVX/EPI-LVX]” value in the experiment with P. aeruginosa ATCC 27853 (EPI at […], ATCC 27853, listed as TXA11167) was “lacked potentiation activity”. Also, the MIC with P. aeruginosa ATCC 27853 (setting [3]) is above 200 µg/mL. The LVX MIC (+EPI) with P. aeruginosa ATCC 27853 (ATCC 27853) turned out to be 1 µg/mL.

With `C[C@H]1c2cccc(O)c2C(=O)C2=C(O)[C@]3(O)C(=O)C(C(N)=O)=C(O)[C@@H](N(C)C)[C@@H]3[C@@H](O)[C@@H]21` [Doxycycline, doxycycline], in the experiment with P. aeruginosa, the “MIC of antibiotic + TXA01182” value turned out to be 2 µg/mL, the “MIC of antibiotic + TXA09155” value came out at 1 µg/mL and the “MIC of antibiotic + TXA11114” value is 4 µg/mL. In addition, in the experiment with P. aeruginosa ATCC 27853 (Pseudomonas aeruginosa, ATCC27853, ATCC 27853 parent strain (Table S1), read-out: MIC), the MIC came out at 32 µg/mL.

Take `CC[C@H]1OC(=O)[C@H](C)[C@@H](O[C@H]2C[C@@](C)(OC)[C@@H](O)[C@H](C)O2)[C@H](C)[C@@H](O[C@@H]2O[C@H](C)C[C@H](N(C)C)[C@H]2O)[C@](C)(O)C[C@@H](C)CN(C)[C@H](C)[C@@H](O)[C@]1(C)O` [AZM, azithromycin]: the MIC was 32 µg/mL in experiment [2] (Pseudomonas aeruginosa, ATCC27853, EPIR32); 16 µg/mL in experiment [2] (Pseudomonas aeruginosa, ATCC27853, EPIR36); 64 µg/mL in experiment [2] (Pseudomonas aeruginosa, ATCC27853, EPIR38); 64 µg/mL with P. aeruginosa ATCC 27853 (setting [4]).

For polymyxin B [PMB], the MIC in experiment [2] (EPIR32) was found to be 4 µg/mL; in experiment [2] (EPIR36), 4 µg/mL; in experiment [2] (EPIR38), 4 µg/mL; in the experiment with P. aeruginosa ATCC 27853 (setting [4]), 2 µg/mL.

For the compound `NCC1CNC(C(=O)NC(CCc2ccccc2)C(=O)Nc2ccc3ncccc3c2)C1` (stereo not drawn) [MC-04,124], the “Levofloxacin MIC fold difference, +EPI” value was found to be 1 fold in experiment [1] (AR-0229); 1 fold in experiment [1] (AR-0232); 1 fold in experiment [1] (AR-0233); 1 fold in experiment [1] (AR-0234); 1 fold in experiment [1] (AR-0239); 2 fold in experiment [1] (AR-0242). Further, the “Levofloxacin MIC fold difference, +EPI” value in experiment [1] (AR-0244), in experiment [1] (AR-0246), in experiment [1] (AR-0248), in experiment [1] (AR-0249), in experiment [1] (AR-0252) and in experiment [1] (AR-0253) was 1 fold throughout. Also, the “Levofloxacin MIC fold difference, +EPI” value in experiment [1] (AR-0264) is on record as 1 fold. For the same compound, the “Levofloxacin MIC, +EPI” value in experiment [1] (AR-0229) amounted to 64 µg/mL; in experiment [1] (AR-0232), 8 µg/mL; in experiment [1] (AR-0233), 4 µg/mL; in experiment [1] (AR-0234) it was 8 µg/mL; in experiment [1] (AR-0239), 64 µg/mL; in experiment [1] (AR-0242), 4 µg/mL. Moreover, the “Levofloxacin MIC, +EPI” value in experiment [1] (AR-0246) worked out at 64 µg/mL; in experiment [1] (AR-0248), 16 µg/mL; in experiment [1] (AR-0249) it was 64 µg/mL; in experiment [1] (AR-0252) it was 32 µg/mL; in experiment [1] (AR-0253) it was 2 µg/mL; in experiment [1] (AR-0264), 64 µg/mL. In experiment [1], the “Share of CDC isolates with levofloxacin MIC reduced ≥8-fold (potentiated)” value is listed as “minimal MIC shifts”.

As to Cotrimoxazole, in the experiment with P. aeruginosa, the “MIC of antibiotic, No EPI” value came out at 256 µg/mL; the “Fold difference of antibiotic MIC + TXA01182” value was 16, (>16) fold; the “MIC of antibiotic + TXA01182” value was 16, (>16) μg/mL; the “Fold difference of antibiotic MIC + TXA09155” value is on record as 32 fold. Moreover, in the experiment with P. aeruginosa, the “MIC of antibiotic + TXA09155” value was 8 µg/mL, the “Fold difference of antibiotic MIC + TXA11114” value worked out at 8 fold and the “MIC of antibiotic + TXA11114” value is 32 µg/mL.

In the case of `Nc1nc(/C(=N/O)C(=O)N[C@@H]2C(=O)N3C(C(=O)O)=C(/C=C4\CCN([C@@H]5CCNC5)C4=O)CS[C@H]23)ns1` [Ceftobiprole], in the experiment with P. aeruginosa, the “Fold difference of antibiotic MIC + TXA01182” value is listed as 1 fold, the “MIC of antibiotic + TXA01182” value was determined as 8 µg/mL, the “Fold difference of antibiotic MIC + TXA09155” value is recorded as 8 fold and the “MIC of antibiotic + TXA09155” value came to 1 µg/mL. Moreover, in the experiment with P. aeruginosa, the “Fold difference of antibiotic MIC + TXA11114” value is given as 4 fold and the “MIC of antibiotic + TXA11114” value was 2 µg/mL.

As to `C[C@H]1[C@H](NC(=O)/C(=N\OC(C)(C)C(=O)O)c2csc(N)n2)C(=O)N1S(=O)(=O)O` [Aztreonam], in the experiment with P. aeruginosa, the “Fold difference of antibiotic MIC + TXA01182” value turned out to be 4 fold, the “MIC of antibiotic + TXA01182” value was 2 µg/mL, the “Fold difference of antibiotic MIC + TXA09155” value came to 4 fold and the “MIC of antibiotic + TXA09155” value turned out to be 2 µg/mL. Also, the “Fold difference of antibiotic MIC + TXA11114” value with P. aeruginosa worked out at 2 fold.

For the compound `NCC(F)(F)C[C@@H](N)CNC(=O)c1cc2ccc(-c3ccc(F)cc3)cc2[nH]1` [TXA12027, (R)-N-(2,5-diamino-4,4-difluoropentyl)-6-(4-fluorophenyl)-1H-indole-2-carboxamide], the MIC in the experiment on P. aeruginosa ATCC 27853 (setting [3]) turned out to be 100 µg/mL. Also, the LVX MIC (+EPI) in the experiment with P. aeruginosa ATCC 27853 (ATCC 27853) was found to be 1 µg/mL.
